Measurements from patent US20220380347A1, “INHIBITORS OF CYSTEINE PROTEASES AND METHODS OF USE THEREOF” (Pardes Biosciences, Inc., priority 2020, published 2022).
Read-outs that look alike come from different tables or passages of the source.

Columns and labels:
[1] = biological target: COVID-19 (nCoV-2019, SARS-CoV2) Mpro (Severe acute respiratory syndrome coronavirus 2, UniProt P0DTD1); assay: COVID-19 (nCoV-2019, SARS-CoV2) Mpro enzymatic assay; type: biochemical; conditions: 25 nM Mpro, 25 μM substrate; read-out: COVID-19 Mpro IC50
HCov OC43 = assay: HCoV OC43 cytopathic effect (CPE) assay, CellTiter Glo; type: cell-based, human coronavirus (HCov) OC43
229E Mpro = 229E Mpro (Human coronavirus 229E, UniProt P0C6X1); assay: 229E Mpro enzymatic assay (standard methods, SARS-CoV2 Mpro assay given as exemplary); type: biochemical, human coronavirus (HCov) 229E
How it was run: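 Run by standard methods, with the SARS-CoV-2 Mpro protocol given as the model: E. coli-expressed C-His6 protease at 25 nM and substrate at 25 μM (Km 13.5 μM). Buffer pH 7.3 with 5 mM TCEP and 0.1% BSA; % inhibition versus controls fitted to variable-slope log(inhibitor)-response for IC50.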

[2] = read-out: OC43 IC50 (uM) MEDIAN, median
[3] = Betacoronavirus 1, OC43, read-out: OC43 IC50 (uM) MEDIAN, median

229E Mpro, sequence (P0C6X1 2966-3267): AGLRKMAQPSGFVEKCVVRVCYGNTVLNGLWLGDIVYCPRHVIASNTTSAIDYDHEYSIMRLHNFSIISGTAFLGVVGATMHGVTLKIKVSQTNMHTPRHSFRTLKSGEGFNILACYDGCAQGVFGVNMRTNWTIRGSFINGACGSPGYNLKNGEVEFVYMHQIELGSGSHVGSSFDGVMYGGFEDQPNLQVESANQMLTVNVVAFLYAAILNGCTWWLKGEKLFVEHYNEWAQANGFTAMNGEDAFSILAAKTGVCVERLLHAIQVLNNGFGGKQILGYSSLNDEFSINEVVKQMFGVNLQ

SMILES	IC50 [1]	IC50 (HCov OC43; [2])	EC50 (229E Mpro; read-out: 229E Mpro EC50)	EC50 (229E Mpro; 229E Mpro EC50)	IC50 (HCov OC43; [3])	further results
N#CN1C[C@H](O)C[C@@H]1C(=O)N(c1ccc(C2CC2)c(F)c1)C(C(=O)NC1CCCCC1)c1cccnc1 (single isomer, unassigned) [Compound 767 Isomer 2]	2000 to 10000 nM	2 to 10 µM	< 2000 nM	–	–	–
N#CN1C[C@H](O)C[C@@H]1C(=O)N(c1ccc(C(F)(C(F)(F)F)C(F)(F)F)cc1)C(C(=O)NC1CCCCC1)c1cccnc1 (single isomer, unassigned) [Compound 779 Isomer 2]	2000 to 10000 nM	2 to 10 µM	–	2000 to 10000 nM	–	–
N#CN1C[C@H](O)C[C@@H]1C(=O)N(c1ccc(S(F)(F)(F)(F)F)cc1)C(C(=O)NC1CCCCC1)c1cccnc1 (single isomer, unassigned) [Compound 791 Isomer 1]	< 2000 nM	–	–	< 2000 nM	< 2 µM	–
N#CN1C[C@H](O)C[C@@H]1C(=O)N(c1ccc(C2(C(F)(F)F)CC2)cc1)C(C(=O)NC1CCC(F)(F)CC1)c1cncc(F)c1 (single isomer, unassigned) [Compound 815a Isomer 1]	< 2000 nM	–	–	< 2000 nM	< 2 µM	–
N#CN1C[C@H](O)C[C@@H]1C(=O)N(c1ccc(C2(C(F)(F)F)CC2)cc1)C(C(=O)NC1CCC(F)(F)CC1)c1cncc(F)c1 (single isomer, unassigned) [Compound 815a Isomer 2]	< 2000 nM	< 2 µM	< 2000 nM	–	–	–
N#CN1C[C@@H](OC(F)F)C[C@@H]1C(=O)N(c1ccc(S(F)(F)(F)(F)F)cc1)C(C(=O)NC1CCC(F)(F)CC1)c1cncc(F)c1 (single isomer, unassigned) [Compound 823a Isomer 1]	< 2000 nM	–	–	< 2000 nM	< 2 µM	–
N#CN1C[C@@H](OC(F)F)C[C@@H]1C(=O)N(c1ccc(S(F)(F)(F)(F)F)cc1)C(C(=O)NC1CCC(F)(F)CC1)c1cncc(F)c1 (single isomer, unassigned) [Compound 823a Isomer 2]	< 2000 nM	2 to 10 µM	< 2000 nM	–	–	–
CC(C)(C)c1ccc(N(C(=O)[C@H]2CC(F)(F)CN2C#N)C(C(=O)NC2CCCCC2)c2cccnc2)cc1 (single isomer, unassigned) [Compound 876 Isomer 2]	10000 to 30000 nM	–	< 2000 nM	–	–	IC50 (HCov OC43; read-out: OC43 IC50 (uM) MEDIAN, median, listed as 876 Isomer 2): > 30 µM
CC(C)(C)c1ccc(N(C(=O)[C@H]2[C@H](F)CCN2C#N)C(C(=O)NC2CCCCC2)c2cccnc2)cc1 (single isomer, unassigned) [Compound 910 Isomer 1]	< 2000 nM	–	–	< 2000 nM	< 2 µM	–
CC(C)(C)c1ccc(N(C(=O)[C@H]2[C@H](F)CCN2C#N)C(C(=O)NC2CCCCC2)c2cccnc2)cc1 (single isomer, unassigned) [Compound 910 Isomer 2]	10000 to 30000 nM	2 to 10 µM	< 2000 nM	–	–	–
CC(C)(C)c1ccc(N(C(=O)[C@H]2CCCN2C#N)C(C(=O)N2CCOCC2)c2cccnc2)cc1 (single isomer, unassigned) [Compound 959 Isomer 1]	> 30000 nM	–	–	2000 to 10000 nM	–	IC50 (HCov OC43; read-out: OC43 IC50 (uM) MEDIAN, median, listed as 959 Isomer 1): 10 to 30 µM
CC(C)(C)c1ccc(N(C(=O)[C@H]2CCCN2C#N)C(C(=O)N2CCOCC2)c2cccnc2)cc1 (single isomer, unassigned) [Compound 959 Isomer 2]	2000 to 10000 nM	–	–	< 2000 nM	–	IC50 (HCov OC43; read-out: OC43 IC50 (uM) MEDIAN, median, listed as 959 Isomer 2): 2 to 10 µM
CC(C)(C)c1ccc(N(C(=O)[C@H]2CCCN2C#N)C(C(=O)N2CCNC(=O)C2)c2cccnc2)cc1 (single isomer, unassigned) [Compound 961 Isomer 1]	2000 to 10000 nM	–	–	< 2000 nM	–	IC50 (HCov OC43; read-out: OC43 IC50 (uM) MEDIAN, median, listed as 961 Isomer 1): 2 to 10 µM
CC(C)(C)c1ccc(N(C(=O)[C@H]2CCCN2C#N)C(C(=O)N2CCNC(=O)C2)c2cccnc2)cc1 (single isomer, unassigned) [Compound 961 Isomer 2]	> 30000 nM	–	–	2000 to 10000 nM	–	IC50 (HCov OC43; read-out: OC43 IC50 (uM) MEDIAN, median, listed as 961 Isomer 2): 10 to 30 µM
CC(C(=O)NC1CCC(F)(F)CC1)(c1cccnc1)N(C(=O)[C@H]1C[C@@](C)(O)CN1C#N)c1ccc(S(F)(F)(F)(F)F)cc1 (single isomer, unassigned) [Compound 1077 Isomer 1]	10000 to 30000 nM	–	–	< 2000 nM	2 to 10 µM	–
CC(C(=O)NC1CCC(F)(F)CC1)(c1cccnc1)N(C(=O)[C@H]1C[C@@](C)(O)CN1C#N)c1ccc(S(F)(F)(F)(F)F)cc1 (single isomer, unassigned) [Compound 1077 Isomer 2]	< 2000 nM	< 2 µM	< 2000 nM	–	–	–
N#CN1C[C@H]2C[C@H]2[C@@H]1C(=O)N(c1ccc(S(F)(F)(F)(F)F)cc1)C(C(=O)NC1CCC(F)(F)CC1)c1cncc(F)c1 (single isomer, unassigned) [Compound 1095b Isomer 1]	< 2000 nM	–	–	< 2000 nM	< 2 µM	–
N#CN1C[C@H](F)C[C@@H]1C(=O)N(c1ccc(S(F)(F)(F)(F)F)cc1)C(C(=O)NC1CCC(F)(F)CC1)c1cncc(F)c1 (single isomer, unassigned) [Compound 1098 Isomer 1]	2000 to 10000 nM	–	–	< 2000 nM	2 to 10 µM	–
N#CN1C[C@H](F)C[C@@H]1C(=O)N(c1ccc(S(F)(F)(F)(F)F)cc1)C(C(=O)NC1CCC(F)(F)CC1)c1cncc(F)c1 (single isomer, unassigned) [Compound 1098 Isomer 2]	< 2000 nM	< 2 µM	< 2000 nM	–	–	–
N#CN1C[C@@H](F)C[C@@H]1C(=O)N(c1ccc(S(F)(F)(F)(F)F)cc1)C(C(=O)NC1CCC(F)(F)CC1)c1cncc(F)c1 (single isomer, unassigned) [Compound 1099 Isomer 1]	< 2000 nM	–	–	< 2000 nM	< 2 µM	–
N#CN1C[C@@H](F)C[C@@H]1C(=O)N(c1ccc(S(F)(F)(F)(F)F)cc1)C(C(=O)NC1CCC(F)(F)CC1)c1cncc(F)c1 (single isomer, unassigned) [Compound 1099 Isomer 2]	< 2000 nM	2 to 10 µM	< 2000 nM	–	–	–
CO[C@@H]1C[C@H](C(=O)N(c2ccc(S(F)(F)(F)(F)F)cc2)C(C(=O)N(C)CC(=O)NC2CC2)c2cccnc2)N(C#N)C1 (single isomer, unassigned) [Compound 1122]	< 2000 nM	–	–	< 2000 nM	< 2 µM	–
CC1(C)CCNc2cc(N(C(=O)[C@H]3C[C@@](C)(O)CN3C#N)C(C(=O)NC3CCC(F)(F)CC3)c3cncc(F)c3)ccc21 (single isomer, unassigned) [Compound 1127 Isomer 1]	< 2000 nM	< 2 µM	–	< 2000 nM	–	–
CC1(C)CCNc2cc(N(C(=O)[C@H]3C[C@@](C)(O)CN3C#N)C(C(=O)NC3CCC(F)(F)CC3)c3cncc(F)c3)ccc21 (single isomer, unassigned) [Compound 1127 Isomer 2]	< 2000 nM	–	< 2000 nM	–	< 2 µM	–
CC1(C)CN(C#N)[C@@H](C(=O)N(c2ccc(C(C)(C)C)cc2)C(C(=O)NC2CCOCC2)c2cccnc2)CO1 (single isomer, unassigned) [Compound 1141]	< 2000 nM	–	–	< 2000 nM	2 to 10 µM	–
N#CN1CC(=O)NCC1C(=O)N(c1ccc(S(F)(F)(F)(F)F)cc1)C(C(=O)NC1CCC(F)(F)CC1)c1cncc(F)c1 (single isomer, unassigned) [Compound 1160 Isomer 1, 1-cyano-N-[2-[(4,4-difluorocyclohexyl)amino]-1-(5-fluoro-3-pyridyl)-2-oxo-ethyl]-5-oxo-N-[4-(pentafluoro-λ6-sulfanyl)phenyl]piperazine-2-carboxamide]	< 2000 nM	–	–	< 2000 nM	< 2 µM	–
N#CN1CC(=O)NCC1C(=O)N(c1ccc(S(F)(F)(F)(F)F)cc1)C(C(=O)NC1CCC(F)(F)CC1)c1cncc(F)c1 (single isomer, unassigned) [Compound 1160 Isomer 2, 1-cyano-N-[2-[(4,4-difluorocyclohexyl)amino]-1-(5-fluoro-3-pyridyl)-2-oxo-ethyl]-5-oxo-N-[4-(pentafluoro-λ6-sulfanyl)phenyl]piperazine-2-carboxamide]	2000 to 10000 nM	–	–	2000 to 10000 nM	–	IC50 (HCov OC43; read-out: OC43 IC50 (uM) MEDIAN, median, listed as 1160 Isomer 2): 2 to 10 µM
N#CN1CC(=O)NCC1C(=O)N(c1ccc(S(F)(F)(F)(F)F)cc1)C(C(=O)NC1CCC(F)(F)CC1)c1cncc(F)c1 (single isomer, unassigned) [Compound 1160 Isomer 3, 1-cyano-N-[2-[(4,4-difluorocyclohexyl)amino]-1-(5-fluoro-3-pyridyl)-2-oxo-ethyl]-5-oxo-N-[4-(pentafluoro-λ6-sulfanyl)phenyl]piperazine-2-carboxamide]	2000 to 10000 nM	–	–	< 2000 nM	–	IC50 (HCov OC43; read-out: OC43 IC50 (uM) MEDIAN, median, listed as 1160 Isomer 3): 2 to 10 µM
N#CN1CC(=O)NCC1C(=O)N(c1ccc(S(F)(F)(F)(F)F)cc1)C(C(=O)NC1CCC(F)(F)CC1)c1cncc(F)c1 (single isomer, unassigned) [Compound 1160 Isomer 4, 1-cyano-N-[2-[(4,4-difluorocyclohexyl)amino]-1-(5-fluoro-3-pyridyl)-2-oxo-ethyl]-5-oxo-N-[4-(pentafluoro-λ^6-sulfanyl)phenyl]piperazine-2-carboxamide]	2000 to 10000 nM	–	–	< 2000 nM	–	IC50 (HCov OC43; read-out: OC43 IC50 (uM) MEDIAN, median, listed as 1160 Isomer 4): 2 to 10 µM
